Structures can show the parent of a compound that is named as a salt.

For this assay, the system named is hESC-derived ECs versus ACL cells. The experiment in a line: High-throughput screening of LOPAC library, PrestoBlue cell viability, hESC-derived ECs versus ACL cells. It is filed as cell-based, human. The conditions noted are these: LOPAC screen, 4.5 μM, 4 days of incubation, PrestoBlue assay. The protocol:
High-throughput screening (HTS). HUAECS (Lonza) and hESC-derived ECs were cultured in EGM-2 medium while human anterior cruciate ligament cells (ACL cells) were cultured in Dulbecco's modified Eagle's medium (DMEM; PAA) supplemented with 10% FBS, 0.2 mM ascorbic acid 2-phosphate magnesium salt (Sigma Aldrich), […] streptomycin and 100 U/mL penicillin (Life Technologies). ACL cells were isolated from patients that have signed an informed consent form, in compliance with the Dutch legislation. The ethical committee of Medisch Spectrum Twente Hospital approved the collection.
The LOPAC library (Sigma-Aldrich) was used to screen embryonic endothelial-specific cytotoxic compounds. The compounds were solubilized in DMSO. The final compound concentration used in the screen was 4.5 μM in a final volume of 200 μL per well (96-well plate). HUAECs, hESC-derived EC and ACL cells were seeded at 16,000 cells/well (HUAECs and hESC-derived ECs) and 5,000 cells/well (ACL cells) and allowed to reach near confluence (approximately two days). After two days, medium was exchanged and test compounds and controls were added to the 96-well plates (all wells contained 0.25% (v/v) DMSO). After 4 days of incubation, cell viability was assessed using a PrestoBlue (Invitrogen) assay. This assay is based on a resazurin-based solution that indicates the reducing power of living cells and therefore measures indirectly their number. For each measurement, cell medium was removed and the PrestoBlue solution (10%) was added for 3 h at 37° C. upon which the absorbance was measured at 560-590 nm.
Disruption of vascular development has been directly correlated with prenatal loss, malformations and neurodevelopmental problems^41-44. […] The library was screened at a single dosage of 4.5 μM in a volume of 200 μL per well of EGM-2 medium, containing 0.25% DMSO (v/v). […] Six compounds (danazol, chlorpromazine hydrochloride, ellipticine, 3′,4′-dichlorobenzamil, fluphenazine dihydrochloride and 7-cyclopentyl-5-(4-phenoxy)phenyl-7H-pyrrolo[2,3-d]pyrimidin-4-ylamine) affected cell viability in both cells by a difference of 20% (FIG. 4B). The six compounds belong to different classes: cell cycle, ion pumps, dopamine pathway, phosphorylation and hormone signaling. The compounds selected from the primary screen were then tested against hESC-derived ECs and HUAECs at eight different concentrations to obtain a dose-response curve (FIG. 4C and FIG. 14).
As to `O=C1c2c(O)ccc(O)c2C(=O)c2c(NCCNCCO)ccc(NCCNCCO)c21` [Mitoxantrone], the “Differences (%) in cell viability (hESC-Derived ECs versus ACL cells)” value (from here on “Differences (%) in cell viability”) was determined as 94.4%.

Take `Nc1ncn([C@@H]2O[C@H](CO)[C@@H](O)[C@H]2O)c(=O)n1` [5-azacytidine]: the “Differences (%) in cell viability” value is 56.1%.

`N#C/C(=C\c1ccc(O)c(O)c1)C(=O)NCc1ccccc1` [Tyrphostin AG 490]: the “Differences (%) in cell viability” value is listed as 56.3%.

In the case of `C/C(=C\c1ccc(C(=O)O)cc1)c1ccc2c(c1)C(C)(C)CCC2(C)C` [TTNPB], the “Differences (%) in cell viability” value was 92.6%.

For `CC[C@H](C)C(=O)O[C@H]1CCC=C2C=C[C@H](C)[C@H](CC[C@@H]3C[C@@H](O)CC(=O)O3)[C@H]21` [Mevastatin], the “Differences (%) in cell viability” value is 98.0%.

As for `C[C@@H]1O[C@@H](O[C@H]2C[C@@H](O)[C@]3(CO)[C@H]4[C@H](O)C[C@]5(C)[C@@H](C6=CC(=O)OC6)CC[C@]5(O)[C@@H]4CC[C@]3(O)C2)[C@H](O)[C@H](O)[C@H]1O` [Ouabain], the “Differences (%) in cell viability” value is reported as 94.6%.

Regarding `O=S1(=O)N(CCN2CC=C(c3c[nH]c4cc(F)ccc34)CC2)c2cccc3c2N1CCC3` [LY-367,265], the “Differences (%) in cell viability” value is reported as 51.1%.

Take `Cl.Cl.OCCN1CCN(CC/C=C2/c3ccccc3Sc3ccc(C(F)(F)F)cc32)CC1` [cis-(Z)-Flupenthixol dihydrochloride]: the “Differences (%) in cell viability” value turned out to be 69.6%.

For `C=CCc1ccccc1OCC(O)CNC1(C)CCC(C(C)(C)NC(=O)CBr)CC1` (stereo not shown) [Bromoacetyl alprenolol menthane], the “Differences (%) in cell viability” value stood at 93.4%.

For `COc1cc2c(cc1OC)-c1c/c(=N\c3c(C)cc(C)cc3C)n(C)c(=O)n1CC2` [Trequinsin hydrochloride], the “Differences (%) in cell viability” value is 50.7%.

As to `Cc1ccc(S(=O)(=O)N[C@@H](Cc2ccccc2)C(=O)CCl)cc1` [N-p-Tosyl-L-phenylalanine chloromethyl ketone], the “Differences (%) in cell viability” value is 63.9%.

On to `C/C=C(/C)C(=O)O[C@H]1C(C)=C2[C@H]([C@@H]1OC(=O)CCCCCCC)[C@@](C)(OC(C)=O)C[C@H](OC(=O)CCC)[C@@]1(O)[C@H]2OC(=O)[C@@]1(C)O` [Thapsigargin], for which the “Differences (%) in cell viability” value is 94.8%.

With `C[C@@]12C(=O)OC(=O)[C@]1(C)[C@H]1CC[C@@H]2O1` [Cantharidin], the “Differences (%) in cell viability” value stood at 94.3%.

Turning to `Cn1c(=O)c2[nH]c(-c3ccccc3)nc2n(C)c1=O` [1,3-Dimethyl-8-phenylxanthine], the “Differences (%) in cell viability” value is listed as 68.8%.

As to `C[C@H]1CCC/C=C/[C@@H]2C[C@H](O)C[C@H]2[C@H](O)/C=C/C(=O)O1` [Brefeldin A], the “Differences (%) in cell viability” value was found to be 95.5%.

As for `COc1cc([C@@H]2c3cc4c(cc3[C@@H](O[C@@H]3O[C@@H]5CO[C@@H](C)O[C@H]5[C@H](O)[C@H]3O)[C@H]3COC(=O)[C@H]23)OCO4)cc(OC)c1O` [Etoposide], the “Differences (%) in cell viability” value was found to be 59.6%.

For the compound `COc1cc2c(cc1O)CC[C@@H]1[C@@H]2CC[C@]2(C)[C@@H](O)CC[C@@H]12` [2-methoxyestradiol], the “Differences (%) in cell viability” value came to 84.3%.

For the compound `O=C(Nc1ccc([N+](=O)[O-])cc1Cl)c1cc(Cl)ccc1O` [Niclosamide], the “Differences (%) in cell viability” value is listed as 97.6%.

As for `CN1C[C@H](CNC(=O)OCc2ccccc2)C[C@@H]2c3cccc4c3c(cn4C)C[C@H]21` [Metergoline], the “Differences (%) in cell viability” value stood at 56.5%.

For the compound `COc1cccc2c1[C@@H]1CN(CCCCn3c(=O)[nH]c4c(sc5ncc(-c6ccccc6)nc54)c3=O)C[C@@H]1CO2` [Fiduxosin hydrochloride], the “Differences (%) in cell viability” value was determined as 58.2%.

For R-(−)-Fluoxetine hydrochloride, the “Differences (%) in cell viability” value is given as 54.5%.

Regarding `CC(C)(C)c1cc(C=C(C#N)C#N)cc(C(C)(C)C)c1O` [Tyrphostin A9], the “Differences (%) in cell viability” value was found to be 69.5%.

Take `CC1(C(=O)O)C2CCC(O2)C1(C)C(=O)O` (stereo not shown) [Cantharidic Acid]: the “Differences (%) in cell viability” value was found to be 93.8%.

`N[C@@H](Cn1cc(I)c(=O)[nH]c1=O)C(=O)O` [S-5-lodowillardiine]: the “Differences (%) in cell viability” value was 52.8%.

For the compound `C[n+]1cc2c3c(ccc2c2ccc4cc5c(cc4c21)OCO5)OCO3` [Sanguinarine chloride], the “Differences (%) in cell viability” value was 96.4%.

With `C[C@@H](NC(=O)/C(C#N)=C/c1ccc(O)c(O)c1)c1ccccc1` [Tyrphostin AG 527], the “Differences (%) in cell viability” value is 53.4%.

Turning to `COC(=O)Nc1nc2ccc(C(=O)c3cccs3)cc2[nH]1` [Nocodazole], the “Differences (%) in cell viability” value came to 76.4%.

In the case of `CC(=O)c1c(O)c(C)c(O)c(Cc2c(O)c3c(c(C(=O)/C=C/c4ccccc4)c2O)OC(C)(C)C=C3)c1O` [Rottlerin], the “Differences (%) in cell viability” value is 61.6%.

Consider `CC(C)[C@H]1c2ccc(F)cc2CC[C@@]1(CCN(C)CCCc1nc2ccccc2[nH]1)OC(=O)C1CC1` [NNC 55-0396], for which the “Differences (%) in cell viability” value turned out to be 98.4%.

Consider `CS(=O)(=O)O.Cc1c(C(=O)c2cccc3ccccc23)c2cccc3c2n1[C@H](CN1CCOCC1)CO3` [(R)-(+)-WIN 55,212-2 mesylate], for which the “Differences (%) in cell viability” value is on record as 97.7%.

Consider `CCC(=O)c1ccc2c(c1)N(CCCN(C)C)c1ccccc1S2` [Propionylpromazine hydrochloride], for which the “Differences (%) in cell viability” value is 50.3%.

`CSc1ccc2c(c1)N(CCC1CCCCN1C)c1ccccc1S2` (stereo not shown) [Thioridazine hydrochloride]: the “Differences (%) in cell viability” value came to 51.6%.

Take `Cc1nc(-c2ccc(-c3ccc(C(=O)N4CCc5cc6c(cc54)C4(CCN(C)CC4)CO6)cc3)c(C)c2)no1` [SB 224289 hydrochloride]: the “Differences (%) in cell viability” value was 96.7%.

Turning to `CC/C(=C(\c1ccccc1)c1ccc(OCCN(C)C)cc1)c1ccccc1` [Tamoxifen citrate], the “Differences (%) in cell viability” value was 98.3%.

Take `O=c1[nH]c(=O)n([C@H]2C[C@H](O)[C@@H](CO)O2)cc1Br` [5-Bromo-2′-deoxyuridine]: the “Differences (%) in cell viability” value worked out at 53.9%.

`CN(C)CC/C=C1/c2ccccc2Sc2ccc(Cl)cc21` [Chlorprothixene hydrochloride]: the “Differences (%) in cell viability” value came out at 58.1%.

Take `CN1CCN(CCCN2c3ccccc3Sc3ccc(C(F)(F)F)cc32)CC1` [Trifluoperazine dihydrochloride]: the “Differences (%) in cell viability” value amounted to 54.0%.

Consider `COc1ccc(CCN(C)CCCC(C#N)(c2ccc(OC)c(OC)c2)C(C)C)cc1OC.Cl` (racemic) [(±)-Verapamil hydrochloride], for which the “Differences (%) in cell viability” value is 85.1%.

For the compound `NC(=O)OCC(COC(N)=O)c1ccccc1` [Felbamate], the “Differences (%) in cell viability” value came to 50.5%.

As for `COc1cc([C@@H]2c3cc4c(cc3[C@H](O)[C@H]3COC(=O)[C@H]23)OCO4)cc(OC)c1OC` [Podophyllotoxin], the “Differences (%) in cell viability” value came to 75.7%.

Values taken from patent US10526580B2, “Differentiated cell population of endothelial cells derived from human pluripotent stem cells, composition, system, kit and uses thereof” (BIOCANT-ASSOCIAÇÃO DE TRANSFERÊNCIA DE TECNOLOGIA, priority 2012, dated 2020).
